What follows are molecules tested against SARS-CoV 3CL^pro (Severe acute respiratory syndrome coronavirus, UniProt P0C6X7).
Assay type: biochemical

Compound | Inhibitory activity against SARS 3CLpro (in words)
CC1=NN(c2ccccc2)C(=O)/C1=C\c1ccc(-c2cc(Cl)ccc2C(=O)O)o1 [Compound 3e, 4-Chloro-2-(5-((3-methyl-5-oxo-1-phenyl-1,5-dihydro-4H-pyrazol-4-ylidene)methyl)furan-2-yl)benzoic acid] | unable to inhibit
O=C1/C(=C\c2ccc(-c3ccccc3)o2)C(c2ccccc2)=NN1c1ccccc1 [Compound 3j, 2,5-Diphenyl-4-((5-phenylfuran-2-yl)methylene)-2,4-dihydro-3H-pyrazol-3-one] | inactive
CC1=NN(c2cccc(C(=O)O)c2)C(=O)/C1=C\c1ccc(-c2ccccc2)o1 [Compound 3l, 3-(3-Methyl-5-oxo-4-((5-phenylfuran-2-yl)methylene)-4,5-dihydro-1H-pyrazol-1-yl)benzoic acid] | unable to inhibit

Source: paper PMC7079562 (Bioorganic & Medicinal Chemistry, 2016)
